Data set [1] in a line: Metabolite profiling in liver microsomes and S9. It counts as in vitro ADME, rat, dog, monkey, human. Particulars: liver microsomes and S9, 10 μM COMPOUND I, 30 min; species letters not defined. The procedure:
Microsomal incubations for metabolite profiling were similar to those described above for intrinsic clearance determination (see Table 1). Aliquots of COMPOUND I (10 μL), dissolved in DMSO:methanol (1:9), were added to a 96-well plate containing phosphate buffer, and MgCl2 and the liver microsomes at 37° C. using the same automation apparatus as for the stability study described hereinabove. The reactions were initiated by the addition of the UDPGA and NADPH generating system. The final incubation volume for all samples was 1 mL and the length of incubation was 30 min. […] Three 250 μL aliquots were transferred to a 96-well plate containing 900 μL acetonitrile to precipitate the protein. […] The samples were then reconstituted in 150 μL of 20% methanol in water. The three aliquots for each sample were pooled and analyzed by LC/MS.
S9 incubation buffer and cofactors were chosen to allow N-acetylation and carbamoyl glucuronidation in addition to oxidative and glucuronidation pathways possible in liver microsomes. Incubations of sulfamethazine and SCA-136 with liver S9 were used as positive controls for N-acetylation and carbamoyl glucuronidation, respectively. Following a 30 min. incubation, 750 μL from each sample were added to 900 μL acetonitrile. Following centrifugation and evaporation of the supernatant, the samples were reconstituted in 450 μL of 20% methanol in water for analysis by HPLC/UV and LC/MS (see below).
The HPLC system used for mass spectrometric analysis was an Agilent 1100 HPLC (Agilent Technologies, Palo Alto, Calif.) equipped with a binary pump and a diode array UV detector. The UV detector was set to monitor 190-400 nm. Separations were accomplished on a Luna C18 column (150×2.1 mm, 5 μm) (Phenomenex Incorporated, Torrance, Calif.).
The mass spectrometer used for metabolite characterization was a Finnigan LCQ Deca ion trap mass spectrometer (Thermo Electron Corp.). […] Full scan and data dependent MS2 and MS3 mass spectra were recorded. Finnigan Xcalibur software (version 1.3) was used for control of equipment and recording of data from UV and LC/MS analyses.
Chromatographic profiles of COMPOUND I (10 μM) metabolites in incubations with liver microsomes in the presence of NADPH are presented in FIG. 1. Chromatographic profiles of COMPOUND I (10 μM) metabolites in incubations with liver microsomes in the presence of NADPH and UDPGA are presented in FIG. 2. Chromatographic profiles of COMPOUND I (10 μM) metabolites in incubations with liver S9 in the presence of NADPH, UDPGA and acetyl coenzyme A (CoA) are presented in FIG. 3. In incubations containing NADPH, UDPGA and acetyl CoA, fourteen Phase I metabolites (M1, M6, M8, M12, M13, M14, M15, M16, M17, M18, M20, M21, M22 and M23) and six Phase II metabolites (M2, M3, M5, M7, M9 and M10) were observed. In incubations without cofactors, no metabolites were observed.
LC/MS analysis was conducted on extracts of mouse, rat, monkey and human liver microsomes and S9. The mass spectral data for the characterized COMPOUND I metabolites are discussed below.

Data set [2] can be described thus: In vivo metabolism of [14C]COMPOUND I in Sprague-Dawley rats, single oral 5 mg/kg dose. Set-up: species or system rat. Particulars: for Chromatographic Distribution of Radioactivity in Pooled Plasma Samples: 5 mg/kg oral [14C]COMPOUND I. The procedure:
Dose preparation, animal dosing, and specimen collection were performed at Wyeth Research, Collegeville, Pa. The vehicle contained 2% (w/v) polysorbate 80, NF and 0.5% (w/v) methylcellulose (4000 cps) in water. [^14C]COMPOUND I trisuccinate salt (36.6 mg) and non-labeled COMPOUND I trisuccinate salt (26.7 mg) were dissolved in 1 mL of ethanol and suspended in 35 mL of the vehicle with stirring. The target [^14C]COMPOUND I concentration was approximately 1 mg/mL as free base and 70 μCi/mL with a target specific activity of 70 μCi/mg. Three pre- and post-dose aliquots (100 μL) were taken for the determination of radiochemical purity, drug and radioactivity concentrations and specific activity (see below).
Male rats weighing from 323 to 354 g and female rats weighing from 270 to 317 g at the time of dosing were purchased from Charles River Laboratories (Wilmington, Mass.). Non-fasted rats were given a single 5 mg/kg (˜350 μCi/kg) dose of [^14C]COMPOUND I at a volume of 5.0 mL/kg via intragastric gavage. Three rats were dosed for each time point. Animals were provided Purina rat chow and water ad libitum, and were kept individually in metabolism cages.
Blood samples were collected at 1, 3, 6 and 24 hr from male rats and at 1 and 3 hr from female rats after dose administration by cardiac puncture into tubes containing EDTA as the anticoagulant and placing them on ice. Triplicate aliquots (50 μL) of whole blood were removed and plasma was immediately obtained from the remaining blood by centrifugation at 4° C. Whole brain samples were collected after saline perfusion at 1, 3, 6 and 24 hr post-dose from male rats and at 1 and 3 hr post-dose from female rats. Urine samples were collected on dry ice from male rats at intervals of 0-6 and 6-24 hr post-dose. Feces were collected from male rats at 0-24 hr post-dose at room temperature. The biological specimens and aliquots of the dose suspension were stored at approximately −70° C. until analysis.
Triplicate aliquots of diluted dose (20 μL), dose fractions (10 μL), and plasma (50 μL) and urine (100 μL) from individual rats were analyzed for radioactivity concentrations. Radioactivity determinations were made with a Tri-Carb Model 3100 TR liquid scintillation counter (LSC) (Perkin Elmer) using 5 mL of Ultima Gold as the scintillation fluid.
Brain and fecal samples from individual rats were weighed and homogenized in water at a volume-to-weight ratio of about 3:1 and 5:1, respectively, with a Polytron PT homogenizer at ice-cold temperature. Duplicate aliquots of blood (50 μL), brain homogenates (0.2 g) and fecal homogenates (0.2 g) were placed on Combusto-cones with Combusto-pads and allowed to dry overnight. Samples were combusted with a model 307 Tri-Carb Sample Oxidizer, equipped with an Oximate-80 Robotic Automatic Sampler (Perkin Elmer). The liberated ^14CO2 was trapped with Carbo-Sorb E carbon dioxide absorber, mixed with PermaFluor® E^+ liquid scintillation cocktail, and counted in a Tri-Carb Model 3100 TR/LL liquid scintillation counter (Perkin Elmer).
Plasma samples were pooled by equal volumes from three animals at each time point (1, 3, 6 and 24 hr for males; 1 and 3 hr for females). Aliquots of 2 mL of pooled plasma were mixed with 2 mL of acetonitrile, placed on ice for about 10 min, and then centrifuged at 4° C. The supernatant was transferred to a clean tube. The protein pellets were extracted two more times with 4 mL of acetonitrile. The supernatants from precipitation and extraction of each sample were pooled, mixed, and evaporated at 22° C. under nitrogen in a TurboVap LV evaporator (Caliper Life Sciences, Hopkinton, Mass.) to about 1.0 mL. The concentrated extract was centrifuged, the supernatant volume measured and the extraction efficiency was determined by analyzing duplicate 10 μL aliquots for radioactivity concentrations.

Data set [3] is described as follows: Metabolite characterization in cryopreserved hepatocytes. Particulars: hepatocyte incubations, 20 μM; R, rat; D, dog; H, human; Media = decomposition product observed in media control.
Method: Pooled male rat, dog, and mixed male and female human cryopreserved hepatocytes were used in this study. The cryopreserved hepatocytes (two vials from each species; three to five million viable cells per vial) were thawed in a 37° C. water bath with gentle shaking until the ice was almost melted. The suspensions from the two individual vials of the same species were immediately transferred to a 50 mL centrifuge tube containing pre-warmed thawing media at 37° C. with gentle handshaking to prevent the cells from settling. The cell suspension was centrifuged at 50 g for 5 min at 4° C. Supernatants were discarded and the pellets were resuspended in pre-warmed incubation media (8 mL) at 37° C. […] [^14C]COMPOUND I (20 μM) was incubated in a 12-well plate containing hepatocyte suspensions at 1.0 mL per well in duplicate (≧1 million viable cells/well) at 37° C. for 1 or 4 hr in the presence of 5% CO2:95% O2. Control incubations without hepatocytes were also run under the same conditions. Positive controls containing [^14C]7-ethoxycoumarin (100 μM) were also incubated under the same conditions, but only for 1 hr. At the end of the incubations, reactions were stopped by adding acetonitrile with 2% acetic acid (1 mL), mixed for 10 min, followed by centrifugation at 4000 rpm for 10 min at 4° C. Aliquots (50 μL) of supernatants were analyzed by HPLC with UV and radioactivity flow detection for metabolite profiling, and by LC/MS for metabolite identification as described in below. To determine extraction recovery, aliquots (20 μL) of supernatants were analyzed for radioactivity content utilizing a Packard Tri-Carb Model 3100 TR liquid scintillation counter and 5 mL of Ultima Gold.
The HPLC system used for mass spectrometric analysis was a Waters Alliance model 2695 HPLC system (Waters Corp). It was equipped with a built-in autosampler and a model 996 diode array UV detector. The UV detector was set to monitor 210-400 nm. The HPLC conditions were the same as those described hereinabove with the following exceptions. […]

For the compound `COc1cc(N2CCN(C3CCN(c4ccc(OC5OC(C(=O)O)C(O)C(O)C5O)c5cccnc45)CC3)CC2)c2ncccc2c1` (stereo not drawn) [Metabolite M5, Hydroxy desfluoro COMPOUND I glucuonide], in data set [1], the “Species (in which the metabolite was characterized)” value was “R, D, M, H”. The “Chromatographic Distribution of Radioactivity in Pooled Plasma Samples” value is listed as 9.6% in data set [2] (female rats, 1 hr); 16.2% in data set [2] (female rats, 3 hr); 15.2% in data set [2] (male rats, 1 hr); 17.1% in data set [2] (male rats, 3 hr); 16.5% in data set [2] (male rats, 6 hr). For the same compound, the “percent of total plasma radioactivity” value in data set [2] (male and female rats, range over time points, 5 mg/kg oral) was 9.6-17.1%.
On to `COc1cc(N2CCN(C3CCN(c4ccc(O)c5cccnc45)CC3)CC2)c2ncccc2c1` [Metabolite M18, Hydroxy desfluoro COMPOUND I], for which the Source result in data set [3] was “D (trace), H”. The “Species (in which the metabolite was characterized)” value in data set [1] is on record as “R, D, M, H”.

The values are drawn from patent US20080262228A1, “Metabolites of 5-fluoro-8- quinoline and methods of preparation and uses thereof” (Wyeth, priority 2006, published 2008).
